# From US20160250303A1, “PERFORIN-2 ACTIVATORS AND INHIBITORS AS DRUG TARGETS FOR INFECTIOUS DISEASE AND GUT INFLAMMATION” (UNIVERSITY OF MIAMI, priority 2013, published 2016)
# System: P-2 mediated bacterial killing
# Assay: Perforin-2 mediated killing of MRSA by BV2 phagocytic cells in vitro (FIG. 14c)
# Conditions: phagocytic cell BV2, in vitro, listed as MLN4294
compound,measurement,value
NS(=O)(=O)OC[C@@H]1CC(n2ccc3c(N[C@H]4CCc5ccccc54)ncnc32)C[C@@H]1O (stereo partly shown) [MLN 4924],P-2 mediated bacterial killing,blocked
